Experimental findings from the supplement of paper PMC12137928 are described below.

Counter-ions that a name gives are not always drawn.

The test system of this assay is HCT116. The note with it: 72 h. A digest of the protocol: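 Luminescence was read with CellTiter-Glo in HCT116 cells seeded at 250 per well in 1536-well plates. Signals were scaled between vehicle at 0% and positive control at -100%, then pattern-corrected. IC50 and maximal efficacy were obtained by fitting a four-parameter Hill equation.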

In the case of `Cc1cc(CC(C)C[Si](C)(O[Si](C)(C)C)O[Si](C)(C)C)c(O)c(-n2nc3ccccc3n2)c1` (configuration not stated) [DROMETRIZOLE TRISILOXANE], the IC50 cell viability is, setting by setting: (ICRF193 0 nM) above 45.8 µM; (ICRF193 200 nM) above 45.8 µM.
Take `O=c1n(Cl)c(=O)n(Cl)c(=O)n1Cl` [Symclosene]: the IC50 cell viability runs as follows: (ICRF193 0 nM) above 45.8 µM; (ICRF193 200 nM) above 45.8 µM.
`CCC(=O)O[C@]1(C(=O)CCl)[C@@H](C)C[C@H]2[C@@H]3C[C@H](F)C4=CC(=O)C=C[C@]4(C)[C@@]3(F)[C@@H](O)C[C@@]21C` [Halobetasol Propionate]: the IC50 cell viability (ICRF193 0 nM) was above 45.8 µM and the IC50 cell viability (ICRF193 200 nM) is above 45.8 µM.
With `C[C@@H](O)[C@@H]1NC(=O)[C@H](CCCCN)NC(=O)[C@@H](Cc2c[nH]c3ccccc23)NC(=O)[C@H](Cc2ccccc2)NC(=O)[C@@H](NC(=O)[C@H](N)Cc2ccccc2)CSSC[C@@H](C(=O)N[C@H](CO)[C@@H](C)O)NC1=O` [Octreotide acetate], the IC50 cell viability by setting is: (ICRF193 0 nM) above 45.8 µM; (ICRF193 200 nM) above 45.8 µM.
For `OC[C@H]1OC(O)[C@H](O)[C@@H](O)[C@@H]1O` (some centres not stated) [DEXTROSE], the IC50 cell viability was above 45.8 µM (ICRF193 0 nM) and above 45.8 µM (ICRF193 200 nM).
Turning to `CC(=O)O[C@]1(C(C)=O)CC[C@H]2[C@@H]3C=C(Cl)C4=CC(=O)CC[C@]4(C)[C@H]3CC[C@@]21C` [Chlormadinone acetate], the IC50 cell viability is, setting by setting: (ICRF193 0 nM) above 45.8 µM; (ICRF193 200 nM) above 45.8 µM.
As for `N[C@@H](Cc1cc(I)c(Oc2cc(I)c(O)c(I)c2)c(I)c1)C(=O)O` [L-Thyroxine], the IC50 cell viability reads like this: (ICRF193 0 nM) above 45.8 µM; (ICRF193 200 nM) above 45.8 µM.
Take `Cc1cc(C(C)(C)C)c(O)c(C)c1CC1=NCCN1` [Oxymetazoline hydrochloride]: the IC50 cell viability was above 45.8 µM (ICRF193 0 nM) and above 45.8 µM (ICRF193 200 nM).
Turning to `OCCOc1ccccc1` [2-Phenoxyethanol], the IC50 cell viability by setting is: (ICRF193 0 nM) above 45.8 µM; (ICRF193 200 nM) above 45.8 µM.
As for `CCc1ccc(Cc2ccc3c(c2)[C@]2(OC3)O[C@H](CO)[C@@H](O)[C@H](O)[C@H]2O)cc1` [Tofogliflozin (hydrate)], the IC50 cell viability reads like this: (ICRF193 0 nM) above 45.8 µM; (ICRF193 200 nM) above 45.8 µM.
`O=C(c1cc(Cc2n[nH]c(=O)c3ccccc23)ccc1F)N1CCN(C(=O)C2CC2)CC1` [Olaparib] came in with an IC50 cell viability (ICRF193 0 nM) above 45.8 µM and an IC50 cell viability (ICRF193 200 nM) above 45.8 µM.
Consider `NCC(CC(=O)O)c1ccc(Cl)cc1` (configuration not stated) [Baclofen], for which the IC50 cell viability was above 45.8 µM (ICRF193 0 nM) and above 45.8 µM (ICRF193 200 nM).
Regarding `C[C@H](CN1CCCC1)C(=O)c1ccc(C(F)(F)F)cc1` [Lanperisone hydrochloride], the IC50 cell viability (ICRF193 0 nM) is above 45.8 µM and the IC50 cell viability (ICRF193 200 nM) was above 45.8 µM.
Take `CC(C)(C)NC(=O)[C@H]1CC[C@H]2[C@@H]3CC=C4C=C(C(=O)O)CC[C@]4(C)[C@H]3CC[C@]12C` [Epristeride]: the IC50 cell viability was above 45.8 µM (ICRF193 0 nM) and above 45.8 µM (ICRF193 200 nM).
For the compound `COc1ccc2cc1Oc1cc3c(cc1OC)CC[N+](C)(C)[C@H]3Cc1ccc(cc1)Oc1c(OC)c(OC)cc3c1[C@@H](C2)[N+](C)(C)CC3` [Metocurine iodide], the IC50 cell viability runs as follows: (ICRF193 0 nM) above 45.8 µM; (ICRF193 200 nM) above 45.8 µM.
Consider `CC(CNC1CCCCC1)OC(=O)c1ccccc1` (configuration not stated) [Hexylcaine hydrochloride], for which the IC50 cell viability was above 45.8 µM (ICRF193 0 nM) and above 45.8 µM (ICRF193 200 nM).
In turn, `C[N+]1(C)[C@@H]2CC[C@H]1C[C@@H](OC(=O)C(O)c1ccccc1)C2` (some centres not stated) [HOMATROPINE METHYLBROMIDE] displayed an IC50 cell viability (ICRF193 0 nM) above 45.8 µM and an IC50 cell viability (ICRF193 200 nM) above 45.8 µM.
For the compound `COC(=O)C1=C(C#N)NC(C)=C(C(=O)OC(C)C)C1c1cccc([N+](=O)[O-])c1` (configuration not stated) [Nilvadipine], the IC50 cell viability runs as follows: (ICRF193 0 nM) above 45.8 µM; (ICRF193 200 nM) above 45.8 µM.
In the case of `CC(C)(C)NC(=O)[C@H]1CC[C@H]2[C@@H]3CC[C@H]4NC(=O)C=C[C@]4(C)[C@H]3CC[C@]12C` [Finasteride], the IC50 cell viability runs as follows: (ICRF193 0 nM) above 45.8 µM; (ICRF193 200 nM) above 45.8 µM.
Take `Nc1ccn([C@@H]2CO[C@H](CO)O2)c(=O)n1` [Troxacitabine]: the IC50 cell viability was above 45.8 µM (ICRF193 0 nM) and above 45.8 µM (ICRF193 200 nM).
With `C[C@@H]1CN(c2c(F)c(N)c3c(=O)c(C(=O)O)cn(C4CC4)c3c2F)C[C@H](C)N1` [Sparfloxacin], the IC50 cell viability is above 45.8 µM (ICRF193 0 nM) and above 45.8 µM (ICRF193 200 nM).
For `CC(C)N(CCC(C(N)=O)(c1ccccc1)c1ccccn1)C(C)C` (configuration not stated) [Disopyramide], the IC50 cell viability reads like this: (ICRF193 0 nM) above 45.8 µM; (ICRF193 200 nM) above 45.8 µM.
In the case of `C=CCN1CC[C@]23c4c5ccc(O)c4O[C@H]2C(=O)CC[C@@]3(O)[C@H]1C5` [Naloxone], the IC50 cell viability reads like this: (ICRF193 0 nM) above 45.8 µM; (ICRF193 200 nM) above 45.8 µM.
Turning to `COc1ccc(C(CN(C)C)C2(O)CCCCC2)cc1` (configuration not stated) [Venlafaxine], the IC50 cell viability by setting is: (ICRF193 0 nM) above 45.8 µM; (ICRF193 200 nM) above 45.8 µM.
In the case of `CO[C@@H]1[C@H](OC(=O)/C=C/C=C/C=C/C=C/C(=O)O)CC[C@]2(CO2)[C@H]1[C@@]1(C)O[C@@H]1CC=C(C)C` [Fumagillin], the IC50 cell viability is, setting by setting: (ICRF193 0 nM) above 45.8 µM; (ICRF193 200 nM) above 45.8 µM.
As to `CC(C)(C)NCC(O)CSc1nc(-c2ccc(C(N)=O)s2)cs1` (configuration not stated) [Arotinolol hydrochloride], the IC50 cell viability is above 45.8 µM (ICRF193 0 nM) and above 45.8 µM (ICRF193 200 nM).
